The values that follow come from patent US11648233B2, “Heripenes with pain-relieving effect, active substances of Hericium erinaceus mycelium and the preparation method thereof, and pharmaceutical composition containing the heripenes or active substances” (GRAPE KING BIO LTD., priority 2015, dated 2023).

The experiment deals with P2R (P2-purinoceptor) in human osteosarcoma HOS cells. Description: Inhibition of ATP-induced P2R calcium signals (Fura-2 fluorescence) in HOS cells. It counts as cell-based. Particulars: erinacine S 5, 10 and 15 μg/ml (FIG. 7B). Here is the method: Cells were filled with a fluorescent dye-based calcium indicator, “Fura-2, AM cell permeant” (ThermoFisher Scientific, Waltham, Mass., U.S.A.), and the variation of the fluorescence level at an emission wavelength of 505 nm was determined at two excitation wavelengths of 340 nm and 380 nm using a fluorescence spectrometer (SPEX® 1681, Spec Industries, Inc., New Jersey, U.S.A.). During the experiment, ATP was added to cells to stimulate the P2R expression, and the variation of the fluorescence level was observed. Finally, 1 wt. % digitonin was added to enable the cells to become transparent, and the maximum fluorescence ratio (Rmax) was obtained at a concentration of 2 mM Ca^2+. Ethyleneglycol bis(2-aminoethylether)tetraacetic acid (EGTA) then was added to chelate with the calcium ions to obtain a minimum fluorescence ratio (Rmin). The dissociation coefficient (Kd) of fura-2 to Ca^2+ is 225 nM. The intracellular calcium-ion concentration was calculated using formulas (Grynkiewicz et al., J. Biol. Chem. 1985. 260(6):3440-3450). […]
Comparing the P2R-correlated calcium signals in three cell lines stimulated with ATP, the variation of the calcium-ion concentration in human osteosarcoma HOS cells was the most significant, and thus the influence of the agent on P2R can clearly be determined. […]

Molecules are shown by their SMILES.

In the case of `CC(C)C1=C2C3CCC4=C(O)C(=O)C5(O)COC6OC(C4C65O)C3(C)CCC2(C)CC1` (stereo not shown) [erinacine S], the “inhibition effect on the variation of the intracellular calcium-ion concentration induced by ATP” value is given as “more significant in a dosage-dependent manner”.
